How the values were obtained:
[1] = biological target: TEAD1 protein (YAP Binding Domain) (Homo sapiens, UniProt P28347); experiment: TEAD1 lipid pocket compound displacement assay (TR-FRET, Cy5-probe); settings: 60 minutes incubation at room temperature; TR-FRET 665 nm/620 nm; read-out: CDA IC50
In short: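 His-tagged TEAD1 YAP-binding domain pre-mixed with a Cy5-labelled lipid-pocket probe and Tb-anti-His antibody; compounds incubated with the complex 60 min at room temperature. TR-FRET read at 665/620 nm; IC50 from 4-parameter non-linear fit of probe displacement.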

NCI-H226 = experiment: 72H TEAD Proliferation Assay (Cell Titer-Glo 2.0); format: cell-based; settings: CTG 2.0, cell line not given
Description: The effect of TEAD inhibition on cell proliferation was assayed using Cell Titer Glo (CTG) 2.0 to measure response in mesothelioma cell lines NCI-H226 (ATCC, #CRL-5826) and NCI-H28 (ATCC, #CRL-5820).
The 72H TEAD Proliferation assay utilizes Cell Titer-Glo 2.0 (Promega, #G9243) to measure the proliferation of cells in the presence or absence of compound. Cell Titer-Glo 2.0 determines the amount of viable cells by quantifying ATP (an indication of metabolically active cells). It utilizes the conversion of Luciferin to Oxyluciferin and a luminescent signal with the use of ATP to report the quantity of viable cells in culture. Within cells that are continually growing, ATP is being synthesized to meet their metabolic demands, meanwhile the opposite is true for cells that are dying or slowing down their proliferation and either no longer using ATP or are using less, respectively. The NF2-deficient NCI-H226 has been genetically validated as a cell line that is sensitive to TEAD inhibition. The NF2-wild type NCI-H28 has been genetically validated as a cell line that is not sensitive to TEAD inhibition and grows independently of TEAD activity.
Compounds were screened against the responsive NCI-H226 cell line to assess the compounds' ability to inhibit TEAD and cell growth. Compounds were also screened against the non-responsive NCI-H28 cell line to ascertain whether the inhibition of cell growth was due to inhibition of the target TEAD or whether the inhibition was due to off-target cytotoxicity.
1) Assay ready plates (ARPs) were prepared by Echo acoustic liquid handler. For each compound, duplicate of 10-point half-log dilution series were dispensed in a 384-well microplate (Corning 3571).
5) NCI-H226 or NCI-H28 cells were harvested from culture in Assay Medium 1 and the multidrop Combi reagent dispenser was used to seed cells at 500 cells per 50 ul in each well of the ARPs and one Corning 3571 plate without compounds for Time 0 (TO) readout.
6) The TO plate was incubated for 2 hours at 37° C. with 5% CO2 to allow cells to settle, then the CTG Assay was performed.
7) All ARPs were incubated for 72 hours at 37° C. with 5% CO2, then the CTG Assay was performed for Time 72H (T72) readout.
8) CTG Assay: Bravo liquid handler (Agilent) was used to add 25 ul of CTG 2.0 to all columns of the plate except for Column 24, which was used to subtract out the background. After CTG addition, plates were placed on shaker at 800 RPM for 15 minutes at room temperature and kept in the dark. Luminescence was measured using EnVision multilabel plate reader with ultra-sensitive detection module.
9) Data Analysis: First background luminescence (no CTG wells) was subtracted from luminescence reading of all wells, then TO luminescence was subtracted from T72 luminescence. To compare anti-proliferative effect of compounds, GI50 was obtained by fitting dose response curves with nonlinear regression curve fit.

His-Tev-Avi-TEAD1 = His-Tev-Avi-TEAD1 (Homo sapiens, UniProt P28347); experiment: TEAD mass modification assay (iMS); format: binding; settings: 50 μM compound, 1 hour, room temperature
His-Tev-Avi-TEAD1, sequence (P28347 209-426 limits assumed): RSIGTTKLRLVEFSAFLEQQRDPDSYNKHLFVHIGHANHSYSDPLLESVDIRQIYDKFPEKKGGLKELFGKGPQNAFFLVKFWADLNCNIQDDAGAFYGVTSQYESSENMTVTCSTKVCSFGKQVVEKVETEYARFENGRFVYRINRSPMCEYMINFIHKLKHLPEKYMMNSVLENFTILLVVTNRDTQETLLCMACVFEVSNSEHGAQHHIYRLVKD
Description: Compound stock (10 mM) was diluted to 2.5 mM with DMSO and His-Tev-Avi-TEAD1 was diluted to 5 μM with Reaction Buffer (50 mM Tris pH 8.0, 150 mM NaCl, and 1 mM TCEP). Compound (1 μL) is incubated with 49 μL protein at room temperature for 1 hour (final compound concentration was 50 μM). The sample (20 μL) was shipped on dry ice to MSBioworks for iMS analysis.
This assay confirms whether or not TEAD is covalently bound to a test compound (i.e., whether the protein's mass is modified). […] Compounds 80 (see FIG. 2), 89 (see FIG. 3), 73 (see FIG. 4), 53 (see FIG. 5), and 59 (see FIG. 6) were also tested in this fashion.

TEAD1 protein (YAP Binding Domain), sequence (P28347 209-426 limits assumed): as above

Row | Compound | IC50 [1] [nM] | GI50 (NCI-H226; Homo sapiens, NCI-H226, 72 h) [nM] | mass modification of TEAD1 (covalent binding) (His-Tev-Avi-TEAD1) | mass of the protein treated with compound (His-Tev-Avi-TEAD1; untreated protein m/z 30,030.70) | GI50 (NCI-H226) [nM]
1 | C=CC(=O)Nc1ccc(OCC2CCC(F)(F)CC2)c(F)c1 [Compound 58, N-(4-((4,4-difluorocyclohexyl)methoxy)-3-fluorophenyl)acrylamide] | ≤ 250 | 250 to 1000 | mass shift indicates modification of TEAD1 | 30,344.29 m/z | 
2 | C=CC(=O)Nc1ccc(OCC2CCC(C(F)(F)F)CC2)c(F)c1 (stereo not shown) [Compound 59, N-(3-fluoro-4-((4-(trifluoromethyl)cyclohexyl)methoxy)phenyl)acrylamide] | ≤ 250 | > 3000 | mass modification of TEAD1 |  | 
3 | C=CC(=O)Nc1ccc(C2COc3ccccc3C2)c(F)c1 (stereo not shown) [Compound 120, N-(4-(chroman-3-yl)-3-fluorophenyl)acrylamide] | 250 to 500 | > 3000 |  |  | 
4 | C=CC(=O)Nc1ccc(OCC2CCCC(C(F)(F)F)C2)c(F)c1 (stereo not shown) [Compound 91, N-(3-fluoro-4-((3-(trifluoromethyl)cyclohexyl)methoxy)phenyl)acrylamide] | ≤ 250 | 250 to 1000 |  |  | 
5 | C=CC(=O)Nc1ccc(OCC2CCC(F)(F)CC2)c2[nH]cnc12 [Compound 22, N-(7-((4,4-difluorocyclohexyl)methoxy)-1H-benzo[d]imidazol-4-yl)acrylamide] | 500 to 2000 | 250 to 1000 |  |  | 
6 | C=CC(=O)Nc1ccc(Oc2cccc(C)c2)c(F)c1 [Compound 113, N-(3-fluoro-4-(m-tolyloxy)phenyl)acrylamide] | ≤ 250 | 1000 to 3000 |  |  | 
7 | C=CC(=O)Nc1ccc(/C=C/c2cccc(F)c2)c(F)c1 [Compound 27, (E)-N-(3-fluoro-4-(3-fluorostyryl)phenyl)acrylamide] | 500 to 2000 | 1000 to 3000 |  |  | 
8 | C=CC(=O)Nc1ccc(OCc2cccnc2Cl)c(F)c1 [Compound 76, N-(4-((2-chloropyridin-3-yl)methoxy)-3-fluorophenyl)acrylamide] | > 2000 | > 3000 |  |  | 
9 | C=CC(=O)Nc1ccc(OCc2ccc(F)c(F)c2)c(F)c1 [Compound 96, N-(4-((3,4-difluorobenzyl)oxy)-3-fluorophenyl)acrylamide] | ≤ 250 | 250 to 1000 |  |  | 
10 | C=CC(=O)Nc1ccc(OCC2CCCC(F)(F)C2)c(F)c1 (stereo not shown) [Compound 24, N-(4-((3,3-difluorocyclohexyl)methoxy)-3-fluorophenyl)acrylamide] | ≤ 250 | ≤ 250 |  |  | 
11 | C=CC(=O)Nc1ccc(OCc2cccc(F)c2Cl)c(C#N)c1 [Compound 39, N-(4-((2-chloro-3-fluorobenzyl)oxy)-3-cyanophenyl)acrylamide] | 250 to 500 | ≤ 250 |  |  | 
12 | C=CC(=O)Nc1ccc(CCc2cccc(F)c2)c(F)c1 [Compound 1, N-(3-fluoro-4-(3-fluorophenethyl)phenyl)acrylamide] | ≤ 250 | 1000 to 3000 |  |  | 
13 | C=CC(=O)Nc1cc2nc(CC3CC3)oc2cc1F [Compound 134, N-(2-(cyclopropylmethyl)-6-fluorobenzo[d]oxazol-5-yl)acrylamide] | > 2000 | 1000 to 3000 |  |  | 
14 | C=CC(=O)Nc1ccc2c(c1)OC(C)(c1cccc(C(F)(F)F)c1)O2 (stereo not shown) [147*, N-(2-methyl-2-(3-(trifluoromethyl)phenyl)benzo[d][1,3]dioxol-5-yl)acrylamide] | ≤ 250 | 250 to 1000 |  |  | 
15 | C=CC(=O)Nc1ccc(OCc2ccccc2Cl)c(F)c1 [Compound 53, N-(4-((2-chlorobenzyl)oxy)-3-fluorophenyl)acrylamide] | 500 to 2000 | 1000 to 3000 | mass modification of TEAD1 |  | 
16 | C=CC(=O)Nc1ccc(Oc2ccccc2)c(F)c1 [Compound 112, N-(3-fluoro-4-phenoxyphenyl)acrylamide] | 250 to 500 | > 3000 |  |  | 
17 | C=CC(=O)Nc1ccc(OCc2cncc(C)c2)c(F)c1 [Compound 71, N-(3-fluoro-4-((5-methylpyridin-3-yl)methoxy)phenyl)acrylamide] | > 2000 | > 3000 |  |  | 
18 | C=C=CC(=O)Nc1ccc(OCc2cccc(F)c2)c(F)c1 [Compound 126] | ≤ 250 | 1000 to 3000 |  |  | 
19 | C=CC(=O)Nc1ccc(OCc2cccc(F)c2)c(C(F)(F)F)c1 [Compound 9, N-(4-((3-fluorobenzyl)oxy)-3-(trifluoromethyl)phenyl)acrylamide] | ≤ 250 | > 3000 |  |  | 
20 | C=CC(=O)Nc1ccc(COc2cccc(C(F)(F)F)c2)c(F)c1 [Compound 31, N-(3-fluoro-4-((3-(trifluoromethyl)phenoxy)methyl)phenyl)acrylamide] | ≤ 250 | ≤ 250 |  |  | 
21 | C=CC(=O)Nc1ccc(OCc2cccc(Cl)c2Cl)c(F)c1 [Compound 80, N-(4-((2,3-dichlorobenzyl)oxy)-3-fluorophenyl)acrylamide] | ≤ 250 | 250 to 1000 | mass modification of TEAD1 |  | 
22 | C=CC(=O)Nc1cc2nc(C3CCC(F)(F)CC3)oc2cc1F [Compound 135, N-(2-(4,4-difluorocyclohexyl)-6-fluorobenzo[d]oxazol-5-yl)acrylamide] | 500 to 2000 |  |  |  | ≤ 250
23 | C=CC(=O)Nc1ccc(OCc2cncc(C(F)(F)F)c2)c(F)c1 [Compound 104, N-(3-fluoro-4-((5-(trifluoromethyl)pyridin-3-yl)methoxy)phenyl)acrylamide] | 250 to 500 | 250 to 1000 |  |  | 
24 | C=CC(=O)Nc1ccc(OCC2CCC(F)(F)CC2)cc1C#N [Compound 20, N-(2-cyano-4-((4,4-difluorocyclohexyl)methoxy)phenyl)acrylamide] | ≤ 250 | 250 to 1000 |  |  | 
25 | C=CC(=O)Nc1ccc(OCc2cccc(C(F)(F)F)n2)c(F)c1 [Compound 115, N-(3-fluoro-4-((6-(trifluoromethyl)pyridin-2-yl)methoxy)phenyl)acrylamide] | 250 to 500 | ≤ 250 |  |  | 
26 | C=CC(=O)Nc1cc2nc(C3CCC(F)(F)CC3)oc2cc1F [Compound 138, N-(2-(4,4-difluorocyclohexyl)-6-fluorobenzo[d]oxazol-5-yl)acrylamide] | 250 to 500 |  |  |  | 1000 to 3000
27 | C=CC(=O)Nc1ccc(OCC2CCCCC2)c(F)c1 [Compound 55, N-(4-(cyclohexylmethoxy)-3-fluorophenyl)acrylamide] | ≤ 250 | 250 to 1000 |  |  | 
28 | C=CC(=O)Nc1ccc(OCc2ccc(C(F)(F)F)nc2)c(F)c1 [Compound 73, N-(3-fluoro-4-((6-(trifluoromethyl)pyridin-3-yl)methoxy)phenyl)acrylamide] | 500 to 2000 | 250 to 1000 | mass modification of TEAD1 |  | 
29 | C=CC(=O)Nc1cc2nc(CC(C)(C)C)oc2cc1F [Compound 143, N-(6-fluoro-2-neopentylbenzo[d]oxazol-5-yl)acrylamide] | 500 to 2000 | 250 to 1000 |  |  | 

Reference: US20230115350A1 (Cedilla Therapeutics, Inc., priority 2021, published 2023)
